Assay results reported in ChEMBL document CHEMBL5335843, “Application of tobramycin benzyl ether as an antibiotic adjuvant capable of sensitizing multidrug-resistant Gram-negative bacteria to rifampicin” (2024).
Calls of active or inactive are those of the source. No cut-off for these calls is given here.

Legend:
Pseudomonas aeruginosa [1] = assay: Antibacterial activity against multi-drug resistant Pseudomonas aeruginosa clinical isolate PA259 assessed as inhibition of bacterial growth incubated for 18 hrs by two fold broth microdilution assay; format: functional
Pseudomonas aeruginosa [2] = assay: Antibacterial activity against multi-drug resistant Pseudomonas aeruginosa clinical isolate PA262 assessed as inhibition of bacterial growth incubated for 18 hrs by two fold broth microdilution assay; format: functional
Acinetobacter baumannii [3] = assay: Antibiotic adjuvant activity against multi-drug resistant Acinetobacter baumannii clinical isolate AB027 assessed as rifampicin MIC incubated for 18 hrs in presence of Rifampicin by two fold broth microdilution checkerboard assay; format: functional
Pseudomonas aeruginosa [4] = assay: Antibiotic adjuvant activity against multi-drug resistant Pseudomonas aeruginosa clinical isolate 101243 assessed as inhibition of bacterial growth incubated for 18 hrs in presence of Rifampicin by two fold broth microdilution checkerboard assay; format: functional
Escherichia coli [5] = assay: Antibiotic adjuvant activity against multi-drug resistant Escherichia coli clinical isolate 94474 assessed as inhibition of bacterial growth incubated for 18 hrs in presence of Rifampicin by two fold broth microdilution checkerboard assay; format: functional
Acinetobacter baumannii [6] = assay: Antibiotic adjuvant activity against multi-drug resistant Acinetobacter baumannii clinical isolate AB031 assessed as inhibition of bacterial growth incubated for 18 hrs in presence of Rifampicin by two fold broth microdilution checkerboard assay; format: functional
Acinetobacter baumannii [7] = assay: Antibiotic adjuvant activity against multi-drug resistant Acinetobacter baumannii clinical isolate 110193 assessed as inhibition of bacterial growth incubated for 18 hrs in presence of Rifampicin by two fold broth microdilution checkerboard assay; format: functional
Pseudomonas aeruginosa [8] = assay: Antibiotic adjuvant activity against multi-drug resistant Pseudomonas aeruginosa clinical isolate 114228 assessed as fold potentiation incubated for 18 hrs in presence of Rifampicin by two fold broth microdilution checkerboard assay; format: functional
Pseudomonas aeruginosa [9] = assay: Antibiotic adjuvant activity against multi-drug resistant Pseudomonas aeruginosa clinical isolate PA259 assessed as fold potentiation incubated for 18 hrs in presence of Rifampicin by two fold broth microdilution checkerboard assay; format: functional
Escherichia coli [10] = assay: Antibiotic adjuvant activity against multi-drug resistant Escherichia coli clinical isolate 94474 assessed as fold potentiation incubated for 18 hrs in presence of Rifampicin by two fold broth microdilution checkerboard assay; format: functional
Acinetobacter baumannii [11] = assay: Antibiotic adjuvant activity against multi-drug resistant Acinetobacter baumannii clinical isolate 92247 assessed as fold potentiation incubated for 18 hrs in presence of Rifampicin by two fold broth microdilution checkerboard assay; format: functional
Pseudomonas aeruginosa [12] = assay: Antibiotic adjuvant activity against multi-drug resistant Pseudomonas aeruginosa clinical isolate 101243 assessed as fractional inhibitory concentration index incubated for 18 hrs in presence of Rifampicin by two fold broth microdilution checkerboard assay; format: functional
Pseudomonas aeruginosa [13] = assay: Antibacterial activity against multi-drug resistant Pseudomonas aeruginosa clinical isolate PA114228 assessed as inhibition of bacterial growth incubated for 18 hrs by two fold broth microdilution assay; format: functional
Pseudomonas aeruginosa [14] = assay: Antibiotic adjuvant activity against multi-drug resistant Pseudomonas aeruginosa clinical isolate PA259 assessed as minocycline MIC incubated for 18 hrs in presence of minocycline by two fold broth microdilution checkerboard assay; format: functional
Pseudomonas aeruginosa [15] = assay: Antibiotic adjuvant activity against multi-drug resistant Pseudomonas aeruginosa clinical isolate PA264 assessed as inhibition of bacterial growth incubated for 18 hrs in presence of minocycline by two fold broth microdilution checkerboard assay; format: functional
Escherichia coli [16] = assay: Antibiotic adjuvant activity against multi-drug resistant Escherichia coli clinical isolate EC107115 assessed as inhibition of bacterial growth incubated for 18 hrs in presence of minocycline by two fold broth microdilution checkerboard assay; format: functional
Pseudomonas aeruginosa [17] = assay: Antibiotic adjuvant activity against multi-drug resistant Pseudomonas aeruginosa clinical isolate PA262 assessed as fold potentiation incubated for 18 hrs in presence of minocycline by two fold broth microdilution checkerboard assay; format: functional
Pseudomonas aeruginosa [18] = assay: Antibiotic adjuvant activity against multi-drug resistant Pseudomonas aeruginosa clinical isolate PA264 assessed as fractional inhibitory concentration index incubated for 18 hrs in presence of minocycline by two fold broth microdilution checkerboard assay; format: functional
Pseudomonas aeruginosa [19] = assay: Antibiotic adjuvant activity against multi-drug resistant Pseudomonas aeruginosa clinical isolate PA101243 assessed as doxycycline MIC incubated for 18 hrs in presence of doxycycline by two fold broth microdilution checkerboard assay; format: functional
Pseudomonas aeruginosa [20] = assay: Antibiotic adjuvant activity against multi-drug resistant Pseudomonas aeruginosa clinical isolate PA264 assessed as doxycycline MIC incubated for 18 hrs in presence of doxycycline by two fold broth microdilution checkerboard assay; format: functional
Escherichia coli [21] = assay: Antibiotic adjuvant activity against multi-drug resistant Escherichia coli clinical isolate EC94474 assessed as doxycycline MIC incubated for 18 hrs in presence of doxycycline by two fold broth microdilution checkerboard assay; format: functional
Pseudomonas aeruginosa [22] = assay: Antibiotic adjuvant activity against multi-drug resistant Pseudomonas aeruginosa clinical isolate PA101243 assessed as fractional inhibitory concentration index incubated for 18 hrs in presence of doxycycline by two fold broth microdilution checkerboard assay; format: functional
Pseudomonas aeruginosa [23] = assay: Antibiotic adjuvant activity against multi-drug resistant Pseudomonas aeruginosa clinical isolate PA114228 assessed as fractional inhibitory concentration index incubated for 18 hrs in presence of doxycycline by two fold broth microdilution checkerboard assay; format: functional
Enterococcus faecium [24] = assay: Antibacterial activity against Enterococcus faecium 114278 assessed as inhibition of bacterial growth incubated for 18 hrs by two fold broth microdilution assay; format: functional
Enterococcus faecium [25] = assay: Antibacterial activity against Enterococcus faecium 128149 assessed as inhibition of bacterial growth incubated for 18 hrs by two fold broth microdilution assay; format: functional
Staphylococcus aureus = assay: Antibacterial activity against methicilin-resistant Staphylococcus aureus assessed as inhibition of bacterial growth incubated for 18 hrs by two fold broth microdilution assay; format: functional
Enterococcus faecium [26] = assay: Antibiotic adjuvant activity against Enterococcus faecium 114278 assessed as rifampicin MIC incubated for 18 hrs in presence of rifampicin by two fold broth microdilution checkerboard assay; format: functional
Enterococcus faecium [27] = assay: Antibiotic adjuvant activity against Enterococcus faecium 128149 assessed as rifampicin MIC incubated for 18 hrs in presence of rifampicin by two fold broth microdilution checkerboard assay; format: functional
Pseudomonas aeruginosa [28] = assay: Antibiotic adjuvant activity against Pseudomonas aeruginosa PAO1 assessed as fold potentiation incubated for 18 hrs in presence of Rifampicin by two fold broth microdilution checkerboard assay; format: functional
Escherichia coli [29] = assay: Antibiotic adjuvant activity against Escherichia coli ATCC 25922 assessed as fold potentiation incubated for 18 hrs in presence of vancomycin by two fold broth microdilution checkerboard assay; format: functional
Pseudomonas aeruginosa [30] = assay: Antibiotic adjuvant activity against Pseudomonas aeruginosa PAO1 assessed as fold potentiation incubated for 18 hrs in presence of doxycycline by two fold broth microdilution checkerboard assay; format: functional
Cell membrane = assay: Induction of outer membrane permeabilization in Escherichia coli ATCC 25922 assessed as increase fluorescence intensity by measuring NPN uptake factor by fluorescence based analysis; format: subcellular
Pseudomonas aeruginosa [31] = assay: Antibiotic adjuvant activity against Pseudomonas aeruginosa PAO1 assessed as fold increase in MIC incubated for 18 hrs in presence of rifampicin and CAMHB Mg2+ media by two fold broth microdilution checkerboard assay; format: functional
Acinetobacter baumannii [32] = assay: Antibiotic adjuvant activity against Acinetobacter baumannii ATCC 17978 assessed as fold potentiation at 8 to 16 ug/ml incubated for 18 hrs in presence of rifampicin and FBS media by two fold broth microdilution checkerboard assay; format: functional; conditions: dose 8-16 µg/ml
Escherichia coli [33] = assay: Antibiotic adjuvant activity against Escherichia coli ATCC 25922 at 8 to 11 ug/ml incubated for 18 hrs in presence of rifampicin and 25 % FBS media by two fold broth microdilution checkerboard assay; format: functional, organism-based; conditions: dose 8-11 µg/ml
Acinetobacter baumannii [34] = assay: Antibiotic adjuvant activity against Acinetobacter baumannii ATCC 17978 assessed as novobiocin MIC incubated for 18 hrs in presence of novobiocin by two fold broth microdilution checkerboard assay; format: functional

Cl.NC[C@H]1O[C@H](O[C@H]2[C@H](OCc3ccccc3)[C@@H](O[C@H]3O[C@H](COCc4ccccc4)[C@@H](OCc4ccccc4)[C@H](N)[C@H]3OCc3ccccc3)[C@H](N)C[C@@H]2N)[C@H](N)C[C@@H]1OCc1ccccc1
MIC (Pseudomonas aeruginosa [1]): 128 µg/mL | MIC (Pseudomonas aeruginosa [2]): 128 µg/mL | MIC (Acinetobacter baumannii [3]): 0.004 µg/mL | MIC (Pseudomonas aeruginosa [4]): 8 µg/mL | MIC (Escherichia coli [5]): 4 µg/mL | MIC (Acinetobacter baumannii [6]): 8 µg/mL | MIC (Acinetobacter baumannii [7]): 8 µg/mL | fold change (FC) (Pseudomonas aeruginosa [8]): 1 | fold change (FC) (Pseudomonas aeruginosa [9]): 1 | fold change (FC) (Escherichia coli [10]): 256 | fold change (FC) (Acinetobacter baumannii [11]): 512 | fractional inhibitory concentration index (FICI) (Pseudomonas aeruginosa [12]): 0.126 | MIC (Pseudomonas aeruginosa [13]): 64 µg/mL | MIC (Pseudomonas aeruginosa [14]): 128 µg/mL | MIC (Pseudomonas aeruginosa [15]): 8 µg/mL | MIC (Escherichia coli [16]): 8 µg/mL | fold change (FC) (Pseudomonas aeruginosa [17]): 1 | fractional inhibitory concentration index (FICI) (Pseudomonas aeruginosa [18]): 0.563 | MIC (Pseudomonas aeruginosa [19]): > 128 µg/mL | MIC (Pseudomonas aeruginosa [20]): 64 µg/mL | MIC (Escherichia coli [21]): 8 µg/mL | fractional inhibitory concentration index (FICI) (Pseudomonas aeruginosa [22]): 1.063 | fractional inhibitory concentration index (FICI) (Pseudomonas aeruginosa [23]): 1.063 | MIC (Enterococcus faecium [24]): 8 µg/mL | MIC (Enterococcus faecium [25]): 16 µg/mL | MIC (Staphylococcus aureus): 16 µg/mL | MIC (Enterococcus faecium [26]): 4 µg/mL | MIC (Enterococcus faecium [27]): 8 µg/mL | fold change (FC) (Pseudomonas aeruginosa [28]): 8 | fold change (FC) (Escherichia coli [29]): 4 | fold change (FC) (Pseudomonas aeruginosa [30]): 4 | Activity (Cell membrane): Dose-Dependent Effect | fold change (FC) (Pseudomonas aeruginosa [31]): >=2 | fold change (FC) (Acinetobacter baumannii [32]): 4 | Activity (Escherichia coli [33]): inactive | MIC (Acinetobacter baumannii [34]): 0.5 µg/mL
